Values of other authors as cited in patent US20240350591A1, “COMPOSITION AND METHODS OF TREATMENT USING […]-ENHANCED SUPPLEMENTATION” (Xygenyx Inc., priority 2023, published 2024).
Non-standard residues stand in square brackets, D forms with d. Residues, ends and D or L forms follow the SMILES beside them. ξ: configuration not given here. Cit = NC(=O)NCCC[C@H](N)C(=O)O; Ile(3ξ) = CCC(C)[C@H](N)C(=O)O

Experiments:
[1] = compared to α-tocopherol = 1.0
[2] = dietary intake in equal portions
F2-isoprostane = conditions: large doses of 1600-3200 IU/day
[3] = in vivo
skin [4] = conditions: topical, concentrations 0.5-5%
[5] = system: wide dynamic range neurons in the ventroposterolateral nucleus of the thalamus; conditions: in vivo
skin [6] = conditions: topical formulations, within four weeks of treatment
[7] = not given; remark: listed apart in the source
[8] = transdermal route
markers of inflammation = conditions: individuals with metabolic syndrome
[9] = patients who did not respond to traditional antidepressant medications

## Cc1c(O)cc2c(c1C)O[C@](C)(CCC[C@H](C)CCC[C@H](C)CCCC(C)C)CC2 [γ-tocopherol]
[1]
  relative biological activity: 0.1
[2]
  concentration in vivo relative to α-tocopherol: roughly 10%

## Cc1c(C)c2c(c(C)c1O)CC[C@@](C)(CCC[C@H](C)CCC[C@H](C)CCCC(C)C)O2 [α-tocopherol]
[1]
  relative biological activity: 1.0
F2-isoprostane
  blood plasma concentration of F2-isoprostane: significantly lower
Dietary supplementation, doses up to 400 IU/day
  reduction of risk of coronary disease: up to 34%
Dietary supplementation, doses up to 400 IU/day, controlled trials
  reduction of risk of developing neurodegenerative diseases (Alzheimer's Syndrome or dementia): ≤ 24%
In combination with 10-20 mg β-carotene and 400-500 mg vitamin C, doses around 400-500 IU
  reduction in the development of age-related cataracts: 23%

## HGH: hormone comprising a peptide chain that is synthesized in the pituitary gland
[3]
  biological half-life: 10-20 minutes

## C=CCCCCCCCCC(=O)N[C@@H](Cc1ccccc1)C(=O)O [UP, Undecylenoyl phenylalanine]
Skin [4]
  time of treatment to skin lightening effects: ≥ 7 days

## CCCCCc1cc(O)c2c(c1)OC(C)(C)C1CCC(C)=CC21 (centres unmarked) [THC, Δ-9-tetrahydrocannabinol]
[5]
  power in mediating pain relative to morphine: ten times

## Cc1cc(O)c(C)c2c1O[C@](C)(CCC[C@H](C)CCC[C@H](C)CCCC(C)C)CC2 [β-tocopherol]
[1]
  relative biological activity: 0.5

## CCC(C)[C@H](NC(=O)[C@H](CC(=O)O)NC(=O)[C@@H](N)CCCCN)C(=O)N[C@@H](CCCNC(N)=O)C(N)=O (some centres unmarked) [tripeptide-10 citrulline, Tripeptide-10 citrulline] (H-KD[Ile(3ξ)][Cit]-NH2)
Skin [6]
  improvement of suppleness: ≤ 54%

## C=C1CC/C=C(\C)CC[C@@H]2[C@@H]1CC2(C)C [β-caryophyllene]
[7]; arthritic subjects
  increases of protein carbonyl groups and myeloperoxidase activity in the liver and plasma: eliminated
[7]; rheumatoid arthritis
  number of circulating and articular leukocytes: reduced
  swelling of joints and lymph nodes: reduced

## CC(C)[C@@H]1CC[C@@H](C)C[C@H]1O [Menthol]
[8]
  factor of increase of drug uptake: ≥ 10

## CC12CCC(CC1)C(C)(C)O2 [eucalyptol, 1,8-epoxy-p-menthane]
[8]
  factor of increase of drug uptake: more than 10

## Cc1cc(O)cc2c1O[C@](C)(CCC[C@H](C)CCC[C@H](C)CCCC(C)C)CC2 [δ-tocopherol]
[1]
  relative biological activity: 0.03
Markers of inflammation
  markers of inflammation in the blood: reduced

## CN1c2c([nH]c(N)nc2=O)NCC1CNc1ccc(C(=O)N[C@@H](CCC(=O)O)C(=O)O)cc1 (some centres unmarked) [5-MTHF, 5-methyltetrahydrofolate]
[9]
  symptoms of depression: improved
